The text below walks through data of patent US20240150293A1, “SPIROCYCLOHEXANE DERIVATIVES, PHARMACEUTICAL COMPOSITIONS CONTAINING THEM AND THEIR USES AS ANTI-APOPTOTIC INHIBITORS” (LES LABORATOIRES SERVIER, priority 2021, published 2024).

Structures are written as SMILES.

For assay [1], the target named is Cy5-labelled Mcl1 (amino acids 171-321) C286S protein (UniProtKB Q07820) (Homo sapiens (Human), UniProt Q07820, C286S). Nature of the assay: Inhibition of Mcl-1 by the fluorescence quenching assay (Example A, Method B). Type of assay: binding. In outline: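 Cy5-labelled Mcl1 171-321 C286S (1 nM) quenched by TQ5WS-labelled PUMA peptide (10, 20 or 400 nM); displacement raises fluorescence (Ex 620/Em 680 nm). Buffer 10 mM HEPES, 150 mM NaCl, 0.05% Tween 20, pH 7.4, 5% DMSO; 2 h at room temperature, 11-point curves, IC50 converted to Ki (cKi/eKi).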
Chain of Cy5-labelled Mcl1 (amino acids 171-321) C286S protein (Q07820 171-321 C286S): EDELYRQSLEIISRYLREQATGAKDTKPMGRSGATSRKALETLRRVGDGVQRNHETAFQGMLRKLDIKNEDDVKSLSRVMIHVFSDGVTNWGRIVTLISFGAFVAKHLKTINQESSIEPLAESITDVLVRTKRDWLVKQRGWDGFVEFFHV

In assay [2] the test system is NCI-H929 cell lines. Nature of the assay: In vitro cytotoxicity, CellTiter-Glo (CTG) assay (Example B, Method B). The settings on record: Homo sapiens, NCI-H929, 48 h, NCI-H929 cells, 48 h incubation, read-out: C50. Type of assay: cell-based. In outline:
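NCI-H929 cells exposed to an 11-point compound series from 10 mM DMSO stocks (top final 30 μM) for 48 h at 37° C., 5% CO2. Viability measured as ATP by CellTiter-Glo luminescence; C50 is the concentration giving 50% cellular viability.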

As usually defined, the Ki is a measure of affinity in units of concentration, obtained from inhibition or displacement.

For the compound `C[C@@H](COc1ccnc2c1[C@H](C)CC[C@H]2C)C[C@H]1Cc2cc3c(cc2[C@]12CC[C@@](Nc1cccc(Cl)c1)(C(=O)O)CC2)OCCO3` [Example 963, (1r,4S,7′S)-4-(3-chloroanilino)-7′-[(2R)-3-{[(5R,8R)-5,8-dimethyl-5,6,7,8-tetrahydroquinolin-4-yl]oxy}-2-methylpropyl]-2′,3′,7′,8′-tetrahydrospiro[cyclohexane-1,6′-indeno[5,6-b][1,4]dioxine]-4-carboxylic acid], the inhibitory constant (Ki) in assay [1] amounted to 0.0235 nM. Besides, the IC50 in assay [2] was determined as 97.3 nM.
`C[C@@H](COc1ccnc2c1[C@H](C)CC[C@H]2F)C[C@H]1Cc2cc3c(cc2[C@]12CC[C@@](Nc1cccc(Cl)c1)(C(=O)O)CC2)OCCO3` [Example 964, (1r,4S,7′S)-4-(3-chloroanilino)-7′-[(2R)-3-{[(5R,8R)-8-fluoro-5-methyl-5,6,7,8-tetrahydroquinolin-4-yl]oxy}-2-methylpropyl]-2′,3′,7′,8′-tetrahydrospiro[cyclohexane-1,6′-indeno[5,6-b][1,4]dioxine]-4-carboxylic acid]: the inhibition constant Ki in assay [1] was 0.0579 nM. The IC50 in assay [2] was found to be 109 nM.
On to `C[C@@H](COc1ccnc2c1[C@H](C)CCC2)C[C@H]1Cc2cc3c(cc2[C@]12CC[C@@](Nc1cccc(Cl)c1)(C(=O)O)CC2)OC[C@H](C)O3` [Example 971, (1r,2′S,4S,7′S)-4-(3-chloroanilino)-2′-methyl-7′-[(2R)-2-methyl-3-{[(5R)-5-methyl-5,6,7,8-tetrahydroquinolin-4-yl]oxy}propyl]-2′,3′,7′,8′-tetrahydrospiro[cyclohexane-1,6′-indeno[5,6-b][1,4]dioxine]-4-carboxylic acid], for which the Ki in assay [1] is 0.0143 nM. For the same compound, the IC50 in assay [2] was determined as 41 nM.
`C[C@@H](COc1ccnc2c1[C@H](C)CCC2)C[C@H]1Cc2cc3c(cc2[C@]12CC[C@@](Nc1cccc(Cl)c1)(C(=O)O)CC2)O[C@@H](C)CO3` [Example 972, (1r,3'S,4S,7′S)-4-(3-chloroanilino)-3′-methyl-7′-[(2R)-2-methyl-3-{[(5R)-5-methyl-5,6,7,8-tetrahydroquinolin-4-yl]oxy}propyl]-2′,3′,7′,8′-tetrahydrospiro[cyclohexane-1,6′-indeno[5,6-b][1,4]dioxine]-4-carboxylic acid]: the inhibition constant (Ki) in assay [1] was found to be 0.00893 nM. Also, the IC50 in assay [2] worked out at 31 nM.
In the same order, the values of `C[C@@H](COc1ccnc2c1[C@H](C)CCC2)C[C@H]1Cc2cc3c(cc2[C@]12CC[C@@](Nc1cccc(Cl)c1)(C(=O)O)CC2)O[C@H](C)CO3` [Example 973, (1r,3′R,4S,7′S)-4-(3-chloroanilino)-3′-methyl-7′-[(2R)-2-methyl-3-{[(5R)-5-methyl-5,6,7,8-tetrahydroquinolin-4-yl]oxy}propyl]-2′,3′,7′,8′-tetrahydrospiro[cyclohexane-1,6′-indeno[5,6-b][1,4]dioxine]-4-carboxylic acid] are 0.0118 nM and 34.3 nM.
The matching figures for `C[C@@H](COc1ccnc2c1[C@H](C)CCC2)C[C@H]1Cc2cc3c(cc2[C@]12CC[C@@](Nc1cccc(Cl)c1)(C(=O)O)CC2)OC[C@@H](C)O3` [Example 974, (1r,2′R,4S,7′S)-4-(3-chloroanilino)-2′-methyl-7′-[(2R)-2-methyl-3-{[(5R)-5-methyl-5,6,7,8-tetrahydroquinolin-4-yl]oxy}propyl]-2′,3′,7′,8′-tetrahydrospiro[cyclohexane-1,6′-indeno[5,6-b][1,4]dioxine]-4-carboxylic acid]: 0.023 nM and 60.4 nM.
The matching figures for `C[C@@H](COc1ccnc2c1[C@H](C)CCC2)C[C@H]1Cc2cc3c(cc2[C@]12CC[C@@](Nc1cccc(Cl)c1)(C(=O)O)CC2)O[C@@H](C)[C@H](C)O3` [Example 975, (1r,2′S,3'S,4S,7′S)-4-(3-chloroanilino)-2′,3′-dimethyl-7′-[(2R)-2-methyl-3-{[(5R)-5-methyl-5,6,7,8-tetrahydroquinolin-4-yl]oxy}propyl]-2′,3′,7′,8′-tetrahydrospiro[cyclohexane-1,6′-indeno[5,6-b][1,4]dioxine]-4-carboxylic acid]: 0.0244 nM and 80.2 nM.
Consider `C[C@@H](COc1ccnc2c1[C@H](C)CCC2)C[C@H]1Cc2cc3c(cc2[C@]12CC[C@@](Nc1cccc(Cl)c1)(C(=O)O)CC2)O[C@H](C)[C@@H](C)O3` [Example 976, (1r,2′R,3′R,4S,7′S)-4-(3-chloroanilino)-2′,3′-dimethyl-7′-[(2R)-2-methyl-3-{[(5R)-5-methyl-5,6,7,8-tetrahydroquinolin-4-yl]oxy}propyl]-2′,3′,7′,8′-tetrahydrospiro[cyclohexane-1,6′-indeno[5,6-b][1,4]dioxine]-4-carboxylic acid], for which, in assay [1], the inhibition constant Ki was 0.0163 nM. In assay [2], the IC50 is 72.5 nM.
In the same order, the values of `CC[C@H]1COc2cc3c(cc2O1)[C@]1(CC[C@@](Nc2cccc(Cl)c2)(C(=O)O)CC1)[C@@H](C[C@@H](C)COc1ccnc2c1[C@H](C)CCC2)C3` [Example 977, (1r,3'S,4S,7′S)-4-(3-chloroanilino)-3′-ethyl-7′-[(2R)-2-methyl-3-{[(5R)-5-methyl-5,6,7,8-tetrahydroquinolin-4-yl]oxy}propyl]-2′,3′,7′,8′-tetrahydrospiro[cyclohexane-1,6′-indeno[5,6-b][1,4]dioxine]-4-carboxylic acid] are 0.0231 nM and 56 nM.
In the same order, the values of `CC[C@H]1COc2cc3c(cc2O1)C[C@H](C[C@@H](C)COc1ccnc2c1[C@H](C)CCC2)[C@]31CC[C@](Nc2cccc(Cl)c2)(C(=O)O)CC1` [Example 978, (1r,2′S,4S,7′S)-4-(3-chloroanilino)-2′-ethyl-7′-[(2R)-2-methyl-3-{[(5R)-5-methyl-5,6,7,8-tetrahydroquinolin-4-yl]oxy}propyl]-2′,3′,7′,8′-tetrahydrospiro[cyclohexane-1,6′-indeno[5,6-b][1,4]dioxine]-4-carboxylic acid] are 0.0831 nM and 164 nM.
In the same order, the values of `CC[C@@H]1COc2cc3c(cc2O1)[C@]1(CC[C@@](Nc2cccc(Cl)c2)(C(=O)O)CC1)[C@@H](C[C@@H](C)COc1ccnc2c1[C@H](C)CCC2)C3` [Example 979, (1r,3′R,4S,7′S)-4-(3-chloroanilino)-3′-ethyl-7′-[(2R)-2-methyl-3-{[(5R)-5-methyl-5,6,7,8-tetrahydroquinolin-4-yl]oxy}propyl]-2′,3′,7′,8′-tetrahydrospiro[cyclohexane-1,6′-indeno[5,6-b][1,4]dioxine]-4-carboxylic acid] are 0.0299 nM and 67.2 nM.
Turning to `CC[C@@H]1COc2cc3c(cc2O1)C[C@H](C[C@@H](C)COc1ccnc2c1[C@H](C)CCC2)[C@]31CC[C@](Nc2cccc(Cl)c2)(C(=O)O)CC1` [Example 980, (1r,2′R,4S,7′S)-4-(3-chloroanilino)-2′-ethyl-7′-[(2R)-2-methyl-3-{[(5R)-5-methyl-5,6,7,8-tetrahydroquinolin-4-yl]oxy}propyl]-2′,3′,7′,8′-tetrahydrospiro[cyclohexane-1,6′-indeno[5,6-b][1,4]dioxine]-4-carboxylic acid], in assay [1], the Ki came to 0.102 nM. Further, in assay [2], the IC50 was 142 nM.
For the compound `C[C@@H](COc1ccnc2c1[C@H](C)CCC2)C[C@H]1Cc2cc3c(cc2[C@]12CC[C@@](Nc1cccc(Cl)c1)(C(=O)O)CC2)OCC(C)(C)CO3` [Example 981, (1r,4S,8′S)-4-(3-chloroanilino)-3′,3′-dimethyl-8′-[(2R)-2-methyl-3-{[(5R)-5-methyl-5,6,7,8-tetrahydroquinolin-4-yl]oxy}propyl]-3′,4′,8′,9′-tetrahydro-2′H-spiro[cyclohexane-1,7′-indeno[5,6-b][1,4]dioxepine]-4-carboxylic acid], in assay [1], the Ki stood at 0.0238 nM. Further, the IC50 in assay [2] worked out at 86 nM.
The matching figures for `C[C@@H](COc1ccnc2c1[C@H](C)CCC2)C[C@H]1Cc2cc3c(cc2[C@]12CC[C@@](Nc1cccc(Cl)c1)(C(=O)O)CC2)O[C@@H](C)CCO3` [Example 984, (1r,4S,4'S,8′S)-4-(3-chloroanilino)-4′-methyl-8′-[(2R)-2-methyl-3-{[(5R)-5-methyl-5,6,7,8-tetrahydroquinolin-4-yl]oxy}propyl]-3′,4′,8′,9′-tetrahydro-2′H-spiro[cyclohexane-1,7′-indeno[5,6-b][1,4]dioxepine]-4-carboxylic acid]: 0.00728 nM and 35.5 nM.
In the case of `C[C@@H](COc1ccnc2c1[C@H](C)CCC2)C[C@H]1Cc2cc3c(cc2[C@]12CC[C@@](Nc1cccc(Cl)c1)(C(=O)O)CC2)OCC[C@H](C)O3` [Example 985, (1r,2′S,4S,8′S)-4-(3-chloroanilino)-2′-methyl-8′-[(2R)-2-methyl-3-{[(5R)-5-methyl-5,6,7,8-tetrahydroquinolin-4-yl]oxy}propyl]-3′,4′,8′,9′-tetrahydro-2′H-spiro[cyclohexane-1,7′-indeno[5,6-b][1,4]dioxepine]-4-carboxylic acid], the inhibitory constant (Ki) in assay [1] stood at 0.0955 nM. In addition, the IC50 in assay [2] turned out to be 121 nM.
For the compound `C[C@@H](COc1ccnc2c1[C@H](C)CCC2)C[C@H]1Cc2cc3c(cc2[C@]12CC[C@@](Nc1cccc(Cl)c1)(C(=O)O)CC2)OCC[C@@H](C)O3` [Example 986, (1r,2′R,4S,8′S)-4-(3-chloroanilino)-2′-methyl-8′-[(2R)-2-methyl-3-{[(5R)-5-methyl-5,6,7,8-tetrahydroquinolin-4-yl]oxy}propyl]-3′,4′,8′,9′-tetrahydro-2′H-spiro[cyclohexane-1,7′-indeno[5,6-b][1,4]dioxepine]-4-carboxylic acid], in assay [1], the Ki was determined as 0.0342 nM. In assay [2], the IC50 was 86.9 nM.
